Like-named read-outs stand apart in the source and are kept apart here.
Key:
[1] = test system: HCT-116; assay: MTT cytotoxicity assay, colon cancer cells; format: cell-based, human; details: for SI: Selectivity Index from IC50 normal (VERO-B) and IC50 cancer (HCT-116)
Description: (§1) The cytotoxic activity of the compounds was tested against different mammalian cancer cells, prostate carcinoma cells (PC-3), hepatocellular carcinoma (HepG2) and colon cancer cells (HCT-116) and against African green monkey kidney cell line (Vero-B). The cell lines were obtained from American Type Culture Collection (ATCC). The cells were cultivated at 37° C. and 10% CO2 in DMEM (Lonza, 12-604F) medium supplemented with 10% fetal bovine serum (FBS, Lonza, Cat. No. 14-801E), 100 IU/ml penicillin and 100 μg/ml streptomycin (Lonza, 17-602E). Cisplatin (cis-diamineplatinum (II) dichloride) was used as a positive control and was obtained from Sigma then dissolved in 0.9% saline then stored as 8 mM stock solution at −20° C. The synthesized compounds were solubilized in DMSO and stored at −20° C. 0.5% crystal violet was prepared in Methanol and was used to stain the viable cells (Feoktistova, Geserick et al. 2016). Crystal violet binds to proteins and DNA in the adherent and viable cells so the stain is an indicator for the viability of the treated cells. The viability of the cells were quantified by using MTT reagent (3-(4,5-dimethylthiazol-2-yl)-2,5-diphenyl tetrazolium bromide), which measure the activity of mitochondrial dehydrogenase in the viable cells (Slater, Sawyer et al. 1963, Mosmann 1983).
(§2) Cytotoxicity was further assayed as follows. The cells were seeded in 96-well plate as 5*10^4 cells/mL (100 μL/well). A serial dilutions of tested compounds or cisplatin (100, 30, 10, 3.3, 1.1 or 0.37 μM) was added after overnight incubation of the cells at 37° C. and 5% CO2. DMSO was used as a control (0.1%). The cells were incubated for 48 hrs. After that, 15 μl of MTT (5 mg/mL PBS) was added to each well and incubated for another 4 hours. The formazan crystals were solubilized by 100 μL acidified SDS solution (10% SDS/0.01 M HCl). The absorbance was measured after 14 hours of incubation at 37° C. and 5% CO2 at 570 nm by Biotech plate reader. Each experiment was repeated three times and standard deviation was calculated (±). IC50% was calculated as the concentration that cause 50% inhibition for cell growth. The growth of the cells were monitored and the images were acquired by Gx microscopes (GXMGXD202 Inverted Microscope) (10× Eyepiece) after staining with crystal violet.

[2] = test system: HepG2; assay: MTT cytotoxicity assay, hepatocellular carcinoma cells; format: cell-based, human; details: for SI: Selectivity Index from IC50 normal (VERO-B) and IC50 cancer (HepG2)
Description: as §1, §2

[3] = test system: PC-3; assay: MTT cytotoxicity assay, prostate carcinoma cells; format: cell-based, human; details: for SI: Selectivity Index from IC50 normal (VERO-B) and IC50 cancer (PC-3)
Description: as §1, §2

[4] = test system: Vero-B; assay: MTT cytotoxicity assay, normal kidney cell line; format: cell-based, African green monkey; details: read-out: VERO-B (IC50% μM)
Description: as §1, §2

[5] = Homo sapiens, HCT-116, MTT, 48 hrs incubation, read-out: HCT-116 (IC50% μM)
[6] = Homo sapiens, HCT-116, MTT, 48 hrs incubation, read-out: HCT-116 (IC50% μg/ml)
[7] = Homo sapiens, HepG2, MTT, 48 hrs incubation, read-out: HepG2 (IC50% μM)
[8] = Homo sapiens, HepG2, MTT, 48 hrs incubation, read-out: HepG2 (IC50% μg/ml)
[9] = Chlorocebus sabaeus, Vero B, Table 1, MTT, 48 hrs incubation
[10] = Homo sapiens, PC-3, MTT, 48 hrs incubation, read-out: PC-3 (IC50% μM)
[11] = Homo sapiens, PC-3, MTT, 48 hrs incubation, read-out: PC-3 (IC50% μg/ml)
[12] = Homo sapiens, HCT-116, 48 h, read-out: HCT-116 (IC50% μM), MTT, 48 hrs incubation
[13] = Homo sapiens, HCT-116, 48 h, read-out: HCT-116 (IC50% μg/ml), MTT, 48 hrs incubation
[14] = Chlorocebus sabaeus, Vero B, 48 h
[15] = read-out: HCT-116 (IC50% μM), MTT, 48 hrs incubation

| SMILES | SI [1] | SI [2] | SI [3] | IC50 [1, 5] [µM] | IC50 [1, 6] [µg/mL] | IC50 [2, 7] [µM] | IC50 [2, 8] [µg/mL] | IC50 [4, 9] [µM] | IC50 [3, 10] [µM] | IC50 [3, 11] [µg/mL] | also measured |
| --- | --- | --- | --- | --- | --- | --- | --- | --- | --- | --- | --- |
| N.N.[Cl][Pt][Cl] [Cisplatin, cis-diamineplatinum (II) dichloride, reference compound] | 0.3968 | 0.9091 | 1 | – | – | – | – | – | – | – | HCT-116 (IC50% μg/ml) ([1]; MTT, 48 hrs incubation): 3.8 µg/mL; IC50 ([1]; MTT, 48 hrs incubation, read-out: HCT-116 (IC50% μM)): 12.6 ± 2 µM; HepG2 (IC50% μg/ml) ([2]; MTT, 48 hrs incubation): 1.7 µg/mL; IC50 ([2]; MTT, 48 hrs incubation, read-out: HepG2 (IC50% μM)): 5.5 ± 1 µM; PC-3 (IC50% μg/ml) ([3]; MTT, 48 hrs incubation): 1.5 µg/mL; IC50 ([3]; MTT, 48 hrs incubation, read-out: PC-3 (IC50% μM)): 5 ± 0.5 µM; IC50 ([4]; Table 1, MTT, 48 hrs incubation): 5 µM; IC50 ([4]; Table 2, MTT, 48 hrs incubation): 5 µM; IC50 ([4]; Table 3, MTT, 48 hrs incubation): 5 µM |
| Cc1ccc(/C=C/C(=O)[C@H]2[C@H](c3ccc(C)cc3)[C@H]3CSCN3[C@]23C(=O)Nc2ccccc23)cc1 [Compound 4b, (3R,6′S,7′R,7a′S)-7′-(p-tolyl)-6′-((E)-3-(p-tolyl)acryloyl)-1′,6′,7′,7a′-tetrahydro-3′H-spiro[indoline-3,5′-pyrrolo[1,2-c]thiazol]-2-one] | 1.475 | 3.305 | – | 8 ± 1.2 | 3.8 | 3.57 ± 0.5 | 1.7 | 11.8 | – | – | – |
| O=C(/C=C/c1ccc(Cl)cc1)[C@H]1[C@H](c2ccc(Cl)cc2)[C@H]2CSCN2[C@]12C(=O)Nc1ccccc12 [Compound 4c, (3R,6′S,7′R,7a′S)-7′-(4-chlorophenyl)-6′-((E)-3-(4-chlorophenyl)acryloyl)-1′,6′,7′,7a′-tetrahydro-3′H-spiro[indoline-3,5′-pyrrolo[1,2-c]thiazol]-2-one] | – | 3.5 | 2.593 | 3 ± 0.5 | 1.6 | 2 ± 0.5 | 1 | 7 | 2.7 ± 0.4 | 1.4 | – |
| O=C(/C=C/c1c(Cl)cccc1Cl)[C@H]1[C@H](c2c(Cl)cccc2Cl)[C@H]2CSCN2[C@]12C(=O)Nc1ccccc12 [Compound 4e, (3R,6′S,7′R,7a′S)-7′-(2,6-dichlorophenyl)-6′-((E)-3-(2,6-dichlorophenyl)acryloyl)-1′,6′,7′,7a′-tetrahydro-3′H-spiro[indoline-3,5′-pyrrolo[1,2-c]thiazol]-2-one] | 1 | 3 | – | 3 ± 0.3 | 1.8 | 1 ± 0.3 | 0.6 | 3 | – | – | – |
| O=C(/C=C/c1ccc(Br)cc1)[C@H]1[C@H](c2ccc(Br)cc2)[C@H]2CSCN2[C@]12C(=O)Nc1ccccc12 [Compound 4f, (3R,6′S,7′R,7a′S)-7′-(4-bromophenyl)-6′-((E)-3-(4-bromophenyl)acryloyl)-1′,6′,7′,7a′-tetrahydro-3′H-spiro[indoline-3,5′-pyrrolo[1,2-c]thiazol]-2-one] | 1 | 3.75 | – | 3 ± 0.5 | 1.8 | 0.8 ± 0.1 | 0.5 | 3 | – | – | – |
| O=C(/C=C/c1cccc([N+](=O)[O-])c1)[C@H]1[C@H](c2cccc([N+](=O)[O-])c2)[C@H]2CSCN2[C@]12C(=O)Nc1ccccc12 [Compound 4g] | 1 | – | – | – | – | – | – | – | – | – | IC50 [1, 12]: 2.5 ± 0.2 µM; IC50 [1, 13]: 1.4 µg/mL; IC50 [4, 14]: 2.5 µM |
| COc1ccc(/C=C/C(=O)[C@H]2[C@H](c3ccc(OC)cc3)[C@H]3CSCN3[C@]23C(=O)Nc2ccccc23)cc1 [Compound 4h, (3R,6′S,7′R,7a′S)-7′-(4-methoxyphenyl)-6′-((E)-3-(4-methoxyphenyl)acryloyl)-1′,6′,7′,7a′-tetrahydro-3′H-spiro[indoline-3,5′-pyrrolo[1,2-c]thiazol]-2-one] | 1.071 | 3.333 | – | 7 ± 0.9 | 3.6 | 2.25 ± 0.2 | 1.1 | 7.5 | – | – | – |
| O=C(/C=C/c1ccc2ccccc2c1)[C@H]1[C@H](c2ccc3ccccc3c2)[C@H]2CSCN2[C@]12C(=O)Nc1ccccc12 [Compound 4i, (3R,6′S,7′R,7a′S)-7′-(naphthalen-2-yl)-6′-((E)-3-(naphthalen-2-yl)acryloyl)-1′,6′,7′,7a′-tetrahydro-3′H-spiro[indoline-3,5′-pyrrolo[1,2-c]thiazol]-2-one] | 0.875 | 2.917 | 2.414 | 8 ± 0.3 | 4.4 | 2.4 ± 1 | 1.3 | 7 | 2.9 ± 0.2 | 1.6 | – |
| O=C(/C=C/c1cccs1)[C@H]1[C@H](c2cccs2)[C@H]2CSCN2[C@]12C(=O)Nc1ccccc12 [Compound 4j, (3R,6′S,7′S,7a′S)-7′-(thiophen-2-yl)-6′-((E)-3-(thiophen-2-yl)acryloyl)-1′,6′,7′,7a′-tetrahydro-3′H-spiro[indoline-3,5′-pyrrolo[1,2-c]thiazol]-2-one] | 1.241 | – | – | – | – | – | – | – | – | – | IC50 [1, 12]: ≥ 10 µM; IC50 [1, 13]: 6.7 µg/mL; IC50 [1, 15]: 14.5 ± 1.5 µM; IC50 [4, 14]: 18 µM |
| O=C(/C=C/c1ccco1)[C@H]1[C@H](c2ccco2)[C@H]2CSCN2[C@]12C(=O)Nc1ccccc12 [Compound 4k, (3R,6′S,7′S,7a′S)-7′-(furan-2-yl)-6′-((E)-3-(furan-2-yl)acryloyl)-1′,6′,7′,7a′-tetrahydro-3′H-spiro[indoline-3,5′-pyrrolo[1,2-c]thiazol]-2-one] | 1.316 | – | – | – | – | – | – | – | – | – | IC50 [1, 12]: ≥ 10 µM; IC50 [1, 13]: 10.1 µg/mL; IC50 [1, 15]: 19 ± 2 µM; IC50 [4, 14]: 25 µM |
| O=C(/C=C/c1cccc(Br)c1)[C@H]1[C@H](c2cccc(Br)c2)[C@H]2CSCN2[C@]12C(=O)Nc1ccccc12 [Compound 4l, (3R,6′S,7′R,7a′S)-7′-(3-bromophenyl)-6′-((E)-3-(3-bromophenyl)acryloyl)-1′,6′,7′,7a′-tetrahydro-3′H-spiro[indoline-3,5′-pyrrolo[1,2-c]thiazol]-2-one] | 1.911 | 3.333 | 2 | 1.57 ± 0.3 | 0.95 | 0.9 ± 0.1 | 0.5 | 3 | 1.5 ± 0.5 | 0.9 | – |
| O=C(/C=C/c1ccc(F)cc1)[C@H]1[C@H](c2ccc(F)cc2)[C@H]2CSCN2[C@]12C(=O)Nc1ccccc12 [Compound 4m, (3R,6′S,7′R,7a′S)-7′-(4-fluorophenyl)-6′-((E)-3-(4-fluorophenyl)acryloyl)-1′,6′,7′,7a′-tetrahydro-3′H-spiro[indoline-3,5′-pyrrolo[1,2-c]thiazol]-2-one] | 1.2 | 2.5 | 2.4 | 5 ± 0.3 | 2.4 | 2.4 ± 0.4 | 1.2 | 6 | 2.5 ± 0.2 | 1.2 | – |
| O=C(/C=C/c1ccc(C(F)(F)F)cc1)[C@H]1[C@H](c2ccc(C(F)(F)F)cc2)[C@H]2CSCN2[C@]12C(=O)Nc1ccccc12 [Compound 4n, (3R,6′S,7′R,7a′S)-7′-(4-(trifluoromethyl)phenyl)-6′-((E)-3-(4-(trifluoromethyl)phenyl)acryloyl)-1′,6′,7′,7a′-tetrahydro-3′H-spiro[indoline-3,5′-pyrrolo[1,2-c]thiazol]-2-one] | 0.8621 | 2.778 | 2.5 | 2.9 ± 0.4 | 1.7 | 0.9 ± 0.2 | 0.5 | 2.5 | 1 ± 0.2 | 0.6 | – |
